Experimental findings from paper PMC3014287 (Molecular cell, 2010) are described below.

In assay [1] the target is AKAP79(1-81)-CKAR (human) (UniProt P24588).
The target in assay [2] is T1, PKCβII (Homo sapiens, UniProt P05771). The assay can be described thus: […] kinase assay with substrate peptide, Dixon plot. It counts as biochemical.
Assay [3] addresses T1, PKCβII. The description is as above. The format is biochemical. This is another data set of the same source.

Consider “PKCβII (Calbiochem) (from UniProt P05771-2 1-673) (enzyme)”, for which the T½ of the FRET response of the reporter to Oxo-M in CHO cells (cellular PKC) in assay [1] amounted to 8.3 s. With `O=C1NC(=O)C(c2c[nH]c3ccccc23)=C1c1c[nH]c2ccccc12` [BIS IV, bisindolylmaleimide IV], in assay [2], the “32P kinase assay with substrate peptide, Dixon plot” value is reported as “BIS IV, a bisindolylmaleimide derivative that lacks the dimethylamino group is an uncompetitive inhibitor with respect to the substrate peptide”. In turn, `CN(C)CCCn1cc(C2=C(c3c[nH]c4ccccc34)C(=O)NC2=O)c2ccccc21` [BIS I, bisindolylmaleimide I] gave a Ki in assay [3] of 14.5 ± 4.6 nM.
